US6645918B1, “N-([1,2,4]triazoloazinyl)thiophenesulfonamide compounds and their use as herbicides” (Dow AgroSciences LLC, priority 2000, dated 2003)

Legend:
Assay type in all cases: in vivo
[1] = tested on: chickweed (Stellaria media); assay: Postemergence herbicidal activity, chickweed; conditions: foliar spray, visual after 2 weeks, 0 no injury, 100 complete kill
Protocol: (§1) Seeds of the desired test plant species were planted in Grace-Sierra MetroMix® 306 planting mixture, which typically has a pH of 6.0 to 6.8 and an organic matter content of about 30 percent, in plastic pots with a surface area of 64 square centimeters. When required to ensure good germination and healthy plants, a fungicide treatment and/or other chemical or physical treatment was applied. The plants were grown for 7-21 days in a greenhouse with an approximately 15 hr photoperiod which was maintained at about 23-29° C. during the day and 22-28° C. during the night. Nutrients and water were added on a regular basis and supplemental lighting was provided with overhead metal halide 1000 Watt lamps as necessary. The plants were employed for testing when they reached the first or second true leaf stage. A weighed amount of each test compound, determined by the highest rate to be tested, was placed in a 20 mL glass vial and was dissolved in 4 mL of a 97:3 v/v (volume/volume) mixture of acetone and dimethyl sulfoxide to obtain concentrated stock solutions. […] The concentrated stock solutions obtained were diluted with an aqueous mixture containing acetone, water, iso-propyl alcohol, dimethyl sulfoxide, Atplus 411F crop oil concentrate, and Triton X-155 surfactant (methylenebisdiamyl phenoxy polyethoxy ethanol) in a 48.5:39:10:1.5:1.0:0.02 v/v ratio to obtain spray solutions of known concentration. The solutions containing the highest concentration to be tested were prepared by diluting 2 mL aliquots of the stock solution with 13 mL of the mixture and lower concentrations were prepared by dilution of appropriate smaller portions of the stock solution. Approximately 1.5 mL aliquots of each solution of known concentration were sprayed evenly onto each of the test plant pots using a DeVilbiss atomizer driven by compressed air pressure of 2 to 4 psi (140 to 280 kilopascals) to obtain thorough coverage of each plant. Control plants were sprayed in the same manner with the aqueous mixture. In this test an application rate of 1 ppm results in the application of approximately 1 g/ha. The treated plants and control plants were placed in a greenhouse as described above and watered by sub-irrigation to prevent wash-off of the test compounds. After 2 weeks the condition of the test plants as compared with that of the untreated plants was determined visually and scored on a scale of 0 to 100 percent where 0 corresponds to no injury and 100 corresponds to complete kill.

[2] = tested on: cocklebur (Xanthium strumarium); assay: Postemergence herbicidal activity, cocklebur; conditions: foliar spray, visual after 2 weeks, 0 no injury, 100 complete kill
Protocol: as §1

[3] = tested on: lambsquarters (Chenopodium album); assay: Postemergence herbicidal activity, lambsquarters; conditions: foliar spray, visual after 2 weeks, 0 no injury, 100 complete kill
Protocol: as §1

[4] = tested on: morningglory (Ipomoea hederacea); assay: Postemergence herbicidal activity, morningglory; conditions: foliar spray, visual after 2 weeks, 0 no injury, 100 complete kill
Protocol: as §1

[5] = tested on: velvetleaf (Abutilion theophrasti); assay: Postemergence herbicidal activity, velvetleaf; conditions: foliar spray, visual after 2 weeks, 0 no injury, 100 complete kill
Protocol: as §1

[6] = tested on: viola (Viola tricolor); assay: Postemergence herbicidal activity, viola; conditions: foliar spray, visual after 2 weeks, 0 no injury, 100 complete kill
Protocol: as §1

[7] = tested on: blackgrass (Alopecurus myosuroides); assay: Postemergence herbicidal activity, blackgrass; conditions: foliar spray, visual after 2 weeks, 0 no injury, 100 complete kill
Protocol: as §1

[8] = tested on: giant foxtail (Setaria faberi); assay: Postemergence herbicidal activity, giant foxtail; conditions: foliar spray, visual after 2 weeks, 0 no injury, 100 complete kill
Protocol: as §1

[9] = tested on: Rox orange sorghum (Sorghum bicolor); assay: Postemergence herbicidal activity, Rox orange sorghum; conditions: foliar spray, visual after 2 weeks, 0 no injury, 100 complete kill
Protocol: as §1

[10] = tested on: wild oats (Avena fatua); assay: Postemergence herbicidal activity, wild oats; conditions: foliar spray, visual after 2 weeks, 0 no injury, 100 complete kill
Protocol: as §1

[11] = tested on: cocklebur (Xanthium strumarium); assay: Preemergence herbicidal activity, cocklebur; conditions: soil spray, visual after 3 weeks, 0 no injury, 100 complete kill or no germination
Protocol: (§2) The soil matrix was contained in plastic pots with a surface area of 161 square centimeters. When required to ensure good germination and healthy plants, a fungicide treatment and/or other chemical or physical treatment was applied. A weighed amount, determined by the highest rate to be tested, of each test compound was placed in a 20 mL glass vial and was dissolved in 8 mL of a 97:3 v/v (volume/volume) mixture of acetone and dimethyl sulfoxide to obtain concentrated stock solutions. […] The stock solutions obtained were diluted with a 99.9:0.1 mixture of water and Tween® 155 surfactant (ethoxylated sorbitan fatty acid ester) to obtain application solutions of known concentration. The solutions containing the highest concentration to be tested were prepared by diluting 4 mL aliquots of the stock solution with 8.5 mL of the mixture and lower concentrations were prepared by dilution of appropriate smaller portions of the stock solution. A 2.5 mL aliquot of each solution of known concentration was sprayed evenly onto the soil of each seeded pot using a Cornwall 5.0 mL glass syringe fitted with a TeeJet TN-3 hollow cone nozzle to obtain thorough coverage of the soil in each pot. Control pots were sprayed in the same manner with the aqueous mixture. A highest application rate of 4.48 kg/ha is achieved when 50 mg of test compound is employed. The treated pots and control pots were placed in a greenhouse with an approximately 15 hr photoperiod which was maintained at about 23-29° C. during the day and 22-28° C. during the night. Nutrients and water were added on a regular basis and supplemental lighting was provided with overhead metal halide 1000 Watt lamps as necessary. The water was added by top-irrigation. After 3 weeks the condition of the test plants that germinated and grew as compared with that of the untreated plants that germinated and grew was determined visually and scored on a scale of 0 to 100 percent where 0 corresponds to no injury and 100 corresponds to complete kill or no germination.

[12] = tested on: lambsquarters (Chenopodium album); assay: Preemergence herbicidal activity, lambsquarters; conditions: soil spray, visual after 3 weeks, 0 no injury, 100 complete kill or no germination
Protocol: as §2

[13] = tested on: morningglory (Ipomoea hederacea); assay: Preemergence herbicidal activity, morningglory; conditions: soil spray, visual after 3 weeks, 0 no injury, 100 complete kill or no germination
Protocol: as §2

[14] = tested on: pigweed (Amaranthus retroflexus); assay: Preemergence herbicidal activity, pigweed; conditions: soil spray, visual after 3 weeks, 0 no injury, 100 complete kill or no germination
Protocol: as §2

[15] = tested on: velvetleaf (Abutilion theophrasti); assay: Preemergence herbicidal activity, velvetleaf; conditions: soil spray, visual after 3 weeks, 0 no injury, 100 complete kill or no germination
Protocol: as §2

[16] = tested on: wild poinsettia (Euphorbia heterophylla); assay: Preemergence herbicidal activity, wild poinsettia; conditions: soil spray, visual after 3 weeks, 0 no injury, 100 complete kill or no germination
Protocol: as §2

[17] = tested on: blackgrass (Alopecurus myosuroides); assay: Preemergence herbicidal activity, blackgrass; conditions: soil spray, visual after 3 weeks, 0 no injury, 100 complete kill or no germination
Protocol: as §2

[18] = tested on: barnyardgrass (Echinochloa crus-galli); assay: Preemergence herbicidal activity, barnyardgrass; conditions: soil spray, visual after 3 weeks, 0 no injury, 100 complete kill or no germination
Protocol: as §2

[19] = tested on: crabgrass (Digitaria sanguinalis); assay: Preemergence herbicidal activity, crabgrass; conditions: soil spray, visual after 3 weeks, 0 no injury, 100 complete kill or no germination
Protocol: as §2

[20] = tested on: giant foxtail (Setaria faberi); assay: Preemergence herbicidal activity, giant foxtail; conditions: soil spray, visual after 3 weeks, 0 no injury, 100 complete kill or no germination
Protocol: as §2

[21] = tested on: Rox orange sorghum (Sorghum bicolor); assay: Preemergence herbicidal activity, Rox orange sorghum; conditions: soil spray, visual after 3 weeks, 0 no injury, 100 complete kill or no germination
Protocol: as §2

[22] = tested on: wild oats (Avena fatua); assay: Preemergence herbicidal activity, wild oats; conditions: soil spray, visual after 3 weeks, 0 no injury, 100 complete kill or no germination
Protocol: as §2

[23] = tested on: pigweed (Amaranthus retroflexus); assay: Postemergence herbicidal activity, pigweed; conditions: 7.8 ppm, foliar spray, visual after 2 weeks; 0 no injury, 100 complete kill
Protocol: as §1

COc1sccc1S(=O)(=O)Nc1nc2c(OC)cnc(OC)n2n1 [Compound 8]
STEME postemergence injury score 0-100 ([1]; 7.8 ppm): 95%
XANST postemergence injury score 0-100 ([2]; 7.8 ppm): 60%
CHEAL postemergence injury score 0-100 ([3]; 7.8 ppm): 70%
IPOHE postemergence injury score 0-100 ([4]; 7.8 ppm): 60%
ABUTH postemergence injury score 0-100 ([5]; 7.8 ppm): 75%
VIOTR postemergence injury score 0-100 ([6]; 7.8 ppm): 75%
ALOMY postemergence injury score 0-100 ([7]; 7.8 ppm): 50%
SETFA postemergence injury score 0-100 ([8]; 7.8 ppm): 60%
SORBI postemergence injury score 0-100 ([9]; 7.8 ppm): 95%
AVEFA postemergence injury score 0-100 ([10]; 7.8 ppm): 85%
XANST preemergence injury score 0-100 ([11]; 8.8 g/Ha): 80%
CHEAL preemergence injury score 0-100 ([12]; 8.8 g/Ha): 70%
IPOHE preemergence injury score 0-100 ([13]; 8.8 g/Ha): 75%
AMARE preemergence injury score 0-100 ([14]; 8.8 g/Ha): 80%
ABUTH preemergence injury score 0-100 ([15]; 8.8 g/Ha): 70%
EPHHL preemergence injury score 0-100 ([16]; 8.8 g/Ha): 85%
ALOMY preemergence injury score 0-100 ([17]; 8.8 g/Ha): 85%
ECHCG preemergence injury score 0-100 ([18]; 8.8 g/Ha): 25%
DIGSA preemergence injury score 0-100 ([19]; 8.8 g/Ha): 50%
SETFA preemergence injury score 0-100 ([20]; 8.8 g/Ha): 60%
SORBI preemergence injury score 0-100 ([21]; 8.8 g/Ha): 70%
AVEFA preemergence injury score 0-100 ([22]; 8.8 g/Ha): 80%

COc1sccc1S(=O)(=O)Nc1nc2c(C)cnc(OC)n2n1 [Compound 9]
STEME postemergence injury score 0-100 ([1]; 62 ppm): 95%
XANST postemergence injury score 0-100 ([2]; 62 ppm): 60%
CHEAL postemergence injury score 0-100 ([3]; 62 ppm): 40%
IPOHE postemergence injury score 0-100 ([4]; 62 ppm): 70%
ABUTH postemergence injury score 0-100 ([5]; 62 ppm): 70%
VIOTR postemergence injury score 0-100 ([6]; 62 ppm): 60%
ALOMY postemergence injury score 0-100 ([7]; 62 ppm): 60%
SETFA postemergence injury score 0-100 ([8]; 62 ppm): 20%
SORBI postemergence injury score 0-100 ([9]; 62 ppm): 70%
AVEFA postemergence injury score 0-100 ([10]; 62 ppm): 10%
XANST preemergence injury score 0-100 ([11]; 70 g/Ha): 25%
IPOHE preemergence injury score 0-100 ([13]; 70 g/Ha): 10%
AMARE preemergence injury score 0-100 ([14]; 70 g/Ha): 40%
ABUTH preemergence injury score 0-100 ([15]; 70 g/Ha): 30%
EPHHL preemergence injury score 0-100 ([16]; 70 g/Ha): 10%
ALOMY preemergence injury score 0-100 ([17]; 70 g/Ha): 100%
ECHCG preemergence injury score 0-100 ([18]; 70 g/Ha): 0%
DIGSA preemergence injury score 0-100 ([19]; 70 g/Ha): 10%
SETFA preemergence injury score 0-100 ([20]; 70 g/Ha): 15%
SORBI preemergence injury score 0-100 ([21]; 70 g/Ha): 50%
AVEFA preemergence injury score 0-100 ([22]; 70 g/Ha): 30%

CCOc1cscc1S(=O)(=O)Nc1nc2c(OC)cnc(OC)n2n1 [Compound 13]
STEME postemergence injury score 0-100 ([1]; 7.8 ppm): 95%
XANST postemergence injury score 0-100 ([2]; 7.8 ppm): 95%
CHEAL postemergence injury score 0-100 ([3]; 7.8 ppm): 90%
IPOHE postemergence injury score 0-100 ([4]; 7.8 ppm): 75%
AMARE postemergence injury score 0-100 [23]: 100%
ABUTH postemergence injury score 0-100 ([5]; 7.8 ppm): 95%
VIOTR postemergence injury score 0-100 ([6]; 7.8 ppm): 75%
ALOMY postemergence injury score 0-100 ([7]; 7.8 ppm): 80%
SETFA postemergence injury score 0-100 ([8]; 7.8 ppm): 95%
SORBI postemergence injury score 0-100 ([9]; 7.8 ppm): 95%
AVEFA postemergence injury score 0-100 ([10]; 7.8 ppm): 85%
XANST preemergence injury score 0-100 ([11]; 4.4 g/Ha): 80%
CHEAL preemergence injury score 0-100 ([12]; 4.4 g/Ha): 100%
IPOHE preemergence injury score 0-100 ([13]; 4.4 g/Ha): 90%
AMARE preemergence injury score 0-100 ([14]; 4.4 g/Ha): 90%
ABUTH preemergence injury score 0-100 ([15]; 4.4 g/Ha): 80%
EPHHL preemergence injury score 0-100 ([16]; 4.4 g/Ha): 100%
ALOMY preemergence injury score 0-100 ([17]; 4.4 g/Ha): 100%
ECHCG preemergence injury score 0-100 ([18]; 4.4 g/Ha): 100%
DIGSA preemergence injury score 0-100 ([19]; 4.4 g/Ha): 100%
SETFA preemergence injury score 0-100 ([20]; 4.4 g/Ha): 100%
SORBI preemergence injury score 0-100 ([21]; 4.4 g/Ha): 100%
AVEFA preemergence injury score 0-100 ([22]; 4.4 g/Ha): 100%
